Test results as given in PubChem BioAssay (NCI).
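Cells were grown in 96-well plates and exposed to each compound for 48 hours at five concentrations; endpoints were interpolated linearly between bracketing concentrations, or set to the highest concentration if not reached. Abbreviation: GI50, concentration required for 50% inhibition of growth. TGI marks complete inhibition of growth.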

How the values were obtained:
Assay in all cases: inhibition of tumour cell growth, NCI panel, 48 h
DU-145 prostate = system: DU-145 prostate
EKVX NSCLC = system: EKVX NSCLC
SK-MEL-2 melanoma = system: SK-MEL-2 melanoma
M14 melanoma = system: M14 melanoma
SK-MEL-28 melanoma = system: SK-MEL-28 melanoma
UACC-62 melanoma = system: UACC-62 melanoma
HT29 colon = system: HT29 colon
OVCAR-4 ovarian = system: OVCAR-4 ovarian
MOLT-4 leukemia = system: MOLT-4 leukemia
NCI-H460 lung = system: NCI-H460 lung
NCI-H522 lung = system: NCI-H522 lung
MALME-3M melanoma = system: MALME-3M melanoma
MDA-MB-435 = system: MDA-MB-435
786-0 renal = system: 786-0 renal
KM12 colon = system: KM12 colon
SK-MEL-5 melanoma = system: SK-MEL-5 melanoma
K-562 leukemia = system: K-562 leukemia
A498 renal = system: A498 renal
IGROV1 ovarian = system: IGROV1 ovarian
ACHN renal = system: ACHN renal
COLO 205 colon = system: COLO 205 colon
LOX IMVI melanoma = system: LOX IMVI melanoma
NCI/ADR-RES ovarian = system: NCI/ADR-RES ovarian
HOP-92 NSCLC = system: HOP-92 NSCLC
UACC-257 melanoma = system: UACC-257 melanoma
SN12C renal = system: SN12C renal
HS 578T breast = system: HS 578T breast
SNB-19 CNS = system: SNB-19 CNS
U251 CNS = system: U251 CNS
OVCAR-3 ovarian = system: OVCAR-3 ovarian
UO-31 renal = system: UO-31 renal
PC-3 prostate = system: PC-3 prostate
OVCAR-8 ovarian = system: OVCAR-8 ovarian
RPMI-8226 leukemia = system: RPMI-8226 leukemia
RXF 393 renal = system: RXF 393 renal
BT-549 breast = system: BT-549 breast
OVCAR-5 ovarian = system: OVCAR-5 ovarian
SR leukemia = system: SR leukemia
SF-539 CNS = system: SF-539 CNS
HCT-116 colon = system: HCT-116 colon
HL-60(TB) leukemia = system: HL-60(TB) leukemia
MDA-MB-231 breast = system: MDA-MB-231 breast
T-47D breast = system: T-47D breast
HCC-2998 colon = system: HCC-2998 colon
HCT-15 colon = system: HCT-15 colon
SK-OV-3 ovarian = system: SK-OV-3 ovarian
CCRF-CEM leukemia = system: CCRF-CEM leukemia
HOP-62 NSCLC = system: HOP-62 NSCLC
CAKI-1 renal = system: CAKI-1 renal
TK-10 renal = system: TK-10 renal
SF-295 CNS = system: SF-295 CNS
SNB-75 CNS = system: SNB-75 CNS
MCF7 breast = system: MCF7 breast
SF-268 CNS = system: SF-268 CNS
SW-620 colon = system: SW-620 colon
A549 NSCLC = system: A549 NSCLC

CN1CCN(Cc2ccc(NC(=O)c3cncc(C#Cc4cnn5cccnc45)c3)cc2C(F)(F)F)CC1
GI50 (DU-145 prostate): 2.94 µM
TGI (DU-145 prostate): 9.25 µM
GI50 (EKVX NSCLC): 5.01 µM
TGI (EKVX NSCLC): 16.7 µM
GI50 (SK-MEL-2 melanoma): 1.04 µM
TGI (SK-MEL-2 melanoma): 2.55 µM
GI50 (M14 melanoma): 1.06 µM
TGI (M14 melanoma): 3.34 µM
GI50 (SK-MEL-28 melanoma): 1.86 µM
TGI (SK-MEL-28 melanoma): 8.55 µM
GI50 (UACC-62 melanoma): 2.9 µM
TGI (UACC-62 melanoma): 13.3 µM
GI50 (HT29 colon): 1.36 µM
TGI (HT29 colon): 5.58 µM
GI50 (OVCAR-4 ovarian): 2.88 µM
TGI (OVCAR-4 ovarian): 13.1 µM
GI50 (MOLT-4 leukemia): 2.13 µM
TGI (MOLT-4 leukemia): 7.02 µM
GI50 (NCI-H460 lung): 2 µM
TGI (NCI-H460 lung): 4.72 µM
GI50 (NCI-H522 lung): 1.71 µM
TGI (NCI-H522 lung): 3.51 µM
GI50 (MALME-3M melanoma): 0.322 µM
TGI (MALME-3M melanoma): 1.83 µM
GI50 (MDA-MB-435): 2 µM
TGI (MDA-MB-435): 8.71 µM
GI50 (786-0 renal): 1.83 µM
TGI (786-0 renal): 3.3 µM
GI50 (KM12 colon): 0.0255 µM
TGI (KM12 colon): 4.38 µM
GI50 (SK-MEL-5 melanoma): 2.6 µM
TGI (SK-MEL-5 melanoma): 8.94 µM
TGI (K-562 leukemia): 1.32 µM
GI50 (A498 renal): 8.19 µM
TGI (A498 renal): 19.8 µM
GI50 (IGROV1 ovarian): 2.12 µM
TGI (IGROV1 ovarian): 7.63 µM
GI50 (ACHN renal): 2.29 µM
TGI (ACHN renal): 6.84 µM
GI50 (COLO 205 colon): 1.4 µM
TGI (COLO 205 colon): 3.31 µM
GI50 (LOX IMVI melanoma): 1.23 µM
TGI (LOX IMVI melanoma): 3.12 µM
GI50 (NCI/ADR-RES ovarian): 3.49 µM
TGI (NCI/ADR-RES ovarian): 12.7 µM
GI50 (HOP-92 NSCLC): 0.376 µM
TGI (HOP-92 NSCLC): 4 µM
GI50 (UACC-257 melanoma): 2.92 µM
TGI (UACC-257 melanoma): 12.2 µM
GI50 (SN12C renal): 2.66 µM
TGI (SN12C renal): 10.4 µM
GI50 (HS 578T breast): 2.65 µM
TGI (HS 578T breast): 10.3 µM
GI50 (SNB-19 CNS): 4.05 µM
TGI (SNB-19 CNS): 12.6 µM
GI50 (U251 CNS): 3.3 µM
TGI (U251 CNS): 14.1 µM
GI50 (OVCAR-3 ovarian): 3.88 µM
TGI (OVCAR-3 ovarian): 12.9 µM
GI50 (UO-31 renal): 2.28 µM
TGI (UO-31 renal): 8.57 µM
GI50 (PC-3 prostate): 3.06 µM
TGI (PC-3 prostate): 13.3 µM
GI50 (OVCAR-8 ovarian): 2.87 µM
TGI (OVCAR-8 ovarian): 10.4 µM
GI50 (RPMI-8226 leukemia): 1.83 µM
TGI (RPMI-8226 leukemia): 5.1 µM
GI50 (RXF 393 renal): 2.25 µM
TGI (RXF 393 renal): 4.52 µM
GI50 (BT-549 breast): 4.63 µM
TGI (BT-549 breast): 14.5 µM
GI50 (OVCAR-5 ovarian): 2.45 µM
TGI (OVCAR-5 ovarian): 12.1 µM
GI50 (SR leukemia): 2.45 µM
TGI (SR leukemia): 6.4 µM
GI50 (SF-539 CNS): 1.12 µM
TGI (SF-539 CNS): 2.75 µM
GI50 (HCT-116 colon): 0.941 µM
TGI (HCT-116 colon): 2.62 µM
GI50 (HL-60(TB) leukemia): 0.598 µM
TGI (HL-60(TB) leukemia): 2.67 µM
GI50 (MDA-MB-231 breast): 1.39 µM
TGI (MDA-MB-231 breast): 7.58 µM
GI50 (T-47D breast): 6.08 µM
TGI (T-47D breast): 22 µM
GI50 (HCC-2998 colon): 2.4 µM
TGI (HCC-2998 colon): 10.8 µM
GI50 (HCT-15 colon): 2.8 µM
TGI (HCT-15 colon): 10.2 µM
GI50 (SK-OV-3 ovarian): 3.3 µM
TGI (SK-OV-3 ovarian): 10.6 µM
GI50 (CCRF-CEM leukemia): 2.28 µM
TGI (CCRF-CEM leukemia): 6.47 µM
GI50 (HOP-62 NSCLC): 2.75 µM
TGI (HOP-62 NSCLC): 9.35 µM
GI50 (CAKI-1 renal): 1.8 µM
TGI (CAKI-1 renal): 7.53 µM
GI50 (TK-10 renal): 3.99 µM
TGI (TK-10 renal): 9.78 µM
GI50 (SF-295 CNS): 10.9 µM
TGI (SF-295 CNS): 23.2 µM
GI50 (SNB-75 CNS): 2.84 µM
TGI (SNB-75 CNS): 12.3 µM
GI50 (MCF7 breast): 1.29 µM
TGI (MCF7 breast): 4.39 µM
GI50 (SF-268 CNS): 2.54 µM
TGI (SF-268 CNS): 6.33 µM
GI50 (SW-620 colon): 1.67 µM
TGI (SW-620 colon): 5.01 µM
GI50 (A549 NSCLC): 2.85 µM
TGI (A549 NSCLC): 9.01 µM
